The record followed here is patent US20080161320A1, “FUSED BICYCLIC PYRIMIDINES AS PTK INHIBITORS CONTAINING A ZINC BINDING MOIETY” (priority 2006, published 2008).

In general, pIC50 refers to the IC50 on a negative log10 scale, so that one unit is a factor of ten. Higher therefore signals a low IC50.

Assay [1] has as its target human VEGFR2 (Homo sapiens, UniProt P35968). As to the kind of experiment: HTScan Receptor Kinase Assay, VEGFR2.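 Note: recombinant GST-His-tagged human VEGFR2 kinase domain phosphorylating biotinylated gastrin precursor peptide, 30 min at room temperature, phosphotyrosine detected by Europium-labelled antibody time-resolved fluorescence.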
Procedure: (§1) The ability of compounds to inhibit receptor kinase (EGFR, HER2/ErbB2, and VEGFR2) activity was assayed using HTScan™ Receptor Kinase Assay Kits (Cell Signaling Technologies, Danvers, Mass.). […] VEGFR2 tyrosine kinase was produced using a baculovirus expression system from a construct containing a human VEGFR2 cDNA kinase domain (Asp805-Val1356) (GenBank accession No. AF035121) fragment amino-terminally fused to a GST-HIS6-Thrombin cleavage site. The proteins were purified by one-step affinity chromatography using glutathione-agarose. An anti-phosphotyrosine monoclonal antibody, P-Tyr-100, was used to detect phosphorylation of biotinylated substrate peptides (EGFR, Biotin-PTP1B (Tyr66); HER2/ErbB2, Biotinylated FLT3 (Tyr589); VEGFR2, Biotin-Gastrin Precursor (Tyr87).). […] Fluorescence was measured on a WALLAC Victor 2 plate reader and reported as relative fluorescence units (RFU). Data were plotted using GraphPad Prism (v4.0a) and IC50's calculated using a sigmoidal dose response curve fitting algorithm.
(§2) Each assay was setup as follows: Added 100 μl of 10 mM ATP to 1.25 ml 6 mM substrate peptide. Diluted the mixture with dH20 to 2.5 ml to make 2×ATP/substrate cocktail ([ATP]=400 mM, [substrate]=3 mM). Immediately transfer enzyme from −80° C. to ice. Allowed enzyme to thaw on ice. Microcentrifuged briefly at 4° C. to bring liquid to the bottom of the vial. Returned immediately to ice. […] Transfer 1.25 ml of DTT/Kinase buffer to enzyme tube to make 4× reaction cocktail ([enzyme]=4 ng/μL in 4× reaction cocktail). […] Incubated reaction plate at room temperature for 30 minutes. Added 50 μl/well Stop Buffer (50 mM EDTA, pH 8) to stop the reaction. Transferred 25 μl of each reaction and 75 μl dH2O/well to a 96-well streptavidin-coated plate and incubated at room temperature for 60 minutes. Washed three times with 200 μl/well PBS/T (PBS, 0.05% Tween-20). […] Added 100 μl/well primary antibody. Incubated at room temperature for 60 minutes. Washed three times with 200 μl/well PBS/T. Diluted Europium labeled anti-mouse IgG 1:500 in PBS/T with 1% BSA. Added 100 μl/well diluted antibody. Incubated at room temperature for 30 minutes. Washed five times with 200 μl/well PBS/T. Added 100 μl/well DELFIA® Enhancement Solution. Incubated at room temperature for 5 minutes.
For assay [2], the target named is human HER2/ErbB2 (Homo sapiens, UniProt P04626). Nature of the assay: HTScan Receptor Kinase Assay, HER2/ErbB2.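 Note: europium time-resolved fluorescence detection of anti-phosphotyrosine antibody binding to biotinylated FLT3 (Tyr589) peptide phosphorylated by the kinase, 30 min reaction at room temperature.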
Procedure: as §1, §2
Assay [3] has as its system HDAC. As to the kind of experiment: HDAC fluorimetric assay kit (AK-500, Biomol), HeLa nuclear extract. Type of assay: biochemical. As to the method:
HDAC inhibitors were screened using an HDAC fluorimetric assay kit (AK-500, Biomol, Plymouth Meeting, Pa.). […] Each assay was setup as follows: Defrosted all kit components and kept on ice until use. […] Prepared dilutions of Trichostatin A (TSA, positive control) and tested compounds in assay buffer (5× of final concentration). Diluted Fluor de Lys™ Substrate in assay buffer to 100 uM (50 fold=2× final). Diluted Fluor de Lys™ developer concentrate 20-fold (e.g. 50 μl plus 950 μl Assay Buffer) in cold assay buffer. Second, diluted the 0.2 mM Trichostatin A 100-fold in the 1× Developer (e.g. 10 μl in 1 ml; final Trichostatin A concentration in the 1× Developer=2 μM; final concentration after addition to HDAC/Substrate reaction=1 μM). Added Assay buffer, diluted trichostatin A or test inhibitor to appropriate wells of the microtiter plate. Added diluted HeLa extract or other HDAC sample to all wells except for negative controls.

Assay [4] deals with T1, human EGFR (Homo sapiens, UniProt P00533).
T1 construct: human EGFR (His672-Ala1210); GST (N); purchased Cell Signaling Technologies; host or cells: baculovirus expression system
As to the kind of experiment: HTScan Receptor Kinase Assay, EGFR. The format is biochemical.

pIC50: −log10 of the molar value.

Chain of human HER2/ErbB2 (P04626 676-1255): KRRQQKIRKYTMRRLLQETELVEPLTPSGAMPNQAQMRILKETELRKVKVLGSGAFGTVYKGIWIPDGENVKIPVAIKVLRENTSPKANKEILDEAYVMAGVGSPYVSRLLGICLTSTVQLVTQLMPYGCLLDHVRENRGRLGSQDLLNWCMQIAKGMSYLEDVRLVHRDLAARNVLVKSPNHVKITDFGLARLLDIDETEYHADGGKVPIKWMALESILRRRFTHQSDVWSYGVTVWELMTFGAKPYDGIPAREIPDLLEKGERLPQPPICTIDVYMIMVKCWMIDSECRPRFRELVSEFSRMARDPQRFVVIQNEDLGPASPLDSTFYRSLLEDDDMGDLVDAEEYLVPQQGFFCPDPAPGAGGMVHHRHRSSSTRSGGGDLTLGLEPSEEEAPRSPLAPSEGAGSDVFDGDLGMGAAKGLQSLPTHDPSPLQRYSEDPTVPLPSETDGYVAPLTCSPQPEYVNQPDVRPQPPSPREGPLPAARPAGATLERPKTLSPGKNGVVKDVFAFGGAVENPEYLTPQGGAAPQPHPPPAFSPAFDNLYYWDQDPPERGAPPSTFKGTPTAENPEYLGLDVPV
Chain of human VEGFR2 (P35968 807-1356 limits assumed): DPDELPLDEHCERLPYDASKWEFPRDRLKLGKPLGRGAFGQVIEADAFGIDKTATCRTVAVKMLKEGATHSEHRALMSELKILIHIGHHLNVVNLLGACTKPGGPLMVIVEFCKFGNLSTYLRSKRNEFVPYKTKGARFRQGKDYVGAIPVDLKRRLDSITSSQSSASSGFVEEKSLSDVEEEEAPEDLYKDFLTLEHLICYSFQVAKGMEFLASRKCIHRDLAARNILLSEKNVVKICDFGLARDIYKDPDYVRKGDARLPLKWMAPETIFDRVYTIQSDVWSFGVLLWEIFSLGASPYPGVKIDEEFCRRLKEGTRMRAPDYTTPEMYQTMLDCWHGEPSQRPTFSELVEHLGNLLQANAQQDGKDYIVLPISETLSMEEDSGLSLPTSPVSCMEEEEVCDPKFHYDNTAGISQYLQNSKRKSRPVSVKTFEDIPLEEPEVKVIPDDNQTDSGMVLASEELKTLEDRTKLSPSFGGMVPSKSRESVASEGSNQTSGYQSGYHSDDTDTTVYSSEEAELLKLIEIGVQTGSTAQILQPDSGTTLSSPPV
T1 sequence (P00533 672-1210): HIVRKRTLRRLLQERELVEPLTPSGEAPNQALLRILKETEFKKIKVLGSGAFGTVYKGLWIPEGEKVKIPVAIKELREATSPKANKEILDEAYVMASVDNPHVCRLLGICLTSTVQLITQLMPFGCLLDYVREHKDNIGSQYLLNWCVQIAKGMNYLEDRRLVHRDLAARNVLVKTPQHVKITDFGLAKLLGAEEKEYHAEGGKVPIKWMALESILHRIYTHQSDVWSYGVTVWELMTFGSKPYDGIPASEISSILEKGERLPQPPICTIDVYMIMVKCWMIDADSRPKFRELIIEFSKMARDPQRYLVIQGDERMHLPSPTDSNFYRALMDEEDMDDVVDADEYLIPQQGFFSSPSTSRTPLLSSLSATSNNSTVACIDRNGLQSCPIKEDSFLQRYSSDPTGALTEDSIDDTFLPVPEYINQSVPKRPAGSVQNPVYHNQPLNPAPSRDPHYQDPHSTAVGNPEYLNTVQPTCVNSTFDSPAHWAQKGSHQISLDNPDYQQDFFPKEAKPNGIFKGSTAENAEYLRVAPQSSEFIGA

Take `O=C(CCCCCN1CCN(Cc2ccc(-c3cc4c(NCc5ccccc5)ncnc4[nH]3)cc2)CC1)NO` [Compound 36]: the pIC50 in assay [1], in assay [2], in assay [3] and in assay [4] was 6.00 to 7.00 each time.

Consider `C[C@@H](Nc1ncnc2[nH]c(-c3ccc(OCCCCCCC(=O)NO)cc3)cc12)c1ccc(F)cc1` [Compound 37], for which the pIC50 in assay [1] was 5.00 to 6.00; in assay [2], 6.00 to 7.00; in assay [3] it was greater than 7.00; in assay [4] it was 6.00 to 7.00.

Take `C[C@@H](Nc1ncnc2[nH]c(-c3ccc(NC(=O)CCC(=O)NO)cc3)cc12)c1ccccc1` [Compound 24, (R) —N^1-Hydroxy-N^4-(4-(4-(1-phenylethylamino)-7H-pyrrolo[2,3-d]pyrimidin-6-yl)phenyl)succinamide]: the pIC50 is 6.00 to 7.00 in assay [1], 6.00 to 7.00 in assay [2], less than 5.00 in assay [3] and greater than 7.00 in assay [4].

As to `C[C@@H](Nc1ncnc2[nH]c(-c3ccc(NC(=O)CCCCCCC(=O)NO)cc3)cc12)c1ccccc1` [Compound 27, (R)—N^1-Hydroxy-N^8-(4-(4-(1-phenylethylamino)-7H-pyrrolo[2,3-d]pyrimidin-6-yl)phenyl)octanediamide], the pIC50 is 6.00 to 7.00 in assay [1], 6.00 to 7.00 in assay [2], greater than 7.00 in assay [3] and greater than 7.00 in assay [4].

As for `C[C@@H](Nc1ncnc2[nH]c(-c3ccc(CNCCCCCC(=O)NO)cc3)cc12)c1ccccc1` [Compound 32, (R)—N-hydroxy-6-(4-(4-(1-phenylethylamino)-7H-pyrrolo[2,3-d]pyrimidin-6-yl)benzylamino)hexanamide], the pIC50 in assay [1] was 6.00 to 7.00; in assay [2], 6.00 to 7.00; in assay [3], 6.00 to 7.00; in assay [4], greater than 7.00.

With `C[C@@H](Nc1ncnc2[nH]c(-c3ccc(OCCNCCCCCCCC(=O)NO)cc3)cc12)c1ccccc1` [Compound 61, (R)—N-hydroxy-8-(2-(4-(4-(1-phenylethylamino)-7H-pyrrolo[2,3-d]pyrimidin-6-yl)phenoxy)ethylamino)octanamide], the pIC50 in assay [2] is greater than 7.00; in assay [3] it was 6.00 to 7.00.

In the case of `C[C@@H](Nc1ncnc2[nH]c(-c3ccc(CN4CCN(CCCCC(=O)NO)CC4)cc3)cc12)c1ccccc1` [Compound 14, (R)—N-Hydroxy-5-(4-(4-(4-(1-phenylethylamino)-7H-pyrrolo[2,3-d]pyrimidin-6-yl)benzyl)piperazin-1-yl)pentanamide], the pIC50 in assay [1] is 6.00 to 7.00; in assay [2], 6.00 to 7.00; in assay [3], 5.00 to 6.00; in assay [4], greater than 7.00.

As for `C[C@@H](Nc1ncnc2c1cc(-c1ccc(CNCCN)cc1)n2CCCCCC(=O)NO)c1ccccc1` [Compound 63], the pIC50 in assay [3] is 6.00 to 7.00.

Consider `C[C@@H](Nc1ncnc2[nH]c(-c3ccc(NC(=O)CCCCC(=O)NO)cc3)cc12)c1ccccc1` [Compound 26, (R) —N^1-Hydroxy-N^6-(4-(4-(1-phenylethylamino)-7H-pyrrolo[2,3-d]pyrimidin-6-yl)phenyl)adipamide], for which the pIC50 in assay [1] is 6.00 to 7.00; in assay [2], 6.00 to 7.00; in assay [3] it was greater than 7.00; in assay [4], greater than 7.00.

As to `C[C@@H](Nc1ncnc2[nH]c(-c3ccc(CNCCC(=O)NO)cc3)cc12)c1ccccc1` [Compound 2, (R)—N-Hydroxy-3-(4-(4-(1-phenylethylamino)-7H-pyrrolo[2,3-d]pyrimidin-6-yl)benzylamino)-propanamide], the pIC50 in assay [1] was 6.00 to 7.00; in assay [3], less than 5.00.

`C[C@@H](Nc1ncnc2[nH]c(-c3ccc(OCCNCCCCCC(=O)NO)cc3)cc12)c1ccccc1` [Compound 59, (R)—N-hydroxy-6-(2-(4-(4-(1-phenylethylamino)-7H-pyrrolo[2,3-d]pyrimidin-6-yl)phenoxy)ethylamino)hexanamide] had a pIC50 in assay [3] of 6.00 to 7.00.

Regarding `C[C@@H](Nc1ncnc2c1cc(-c1ccc(N)cc1)n2CCCCCC(=O)NO)c1ccccc1` [Compound 64], the pIC50 in assay [3] was 6.00 to 7.00.

`C[C@@H](Nc1ncnc2[nH]c(-c3ccc(CN4CCC(NCCCCCC(=O)NO)CC4)cc3)cc12)c1ccccc1` [Compound 55, (R)—N-hydroxy-6-(1-(4-(4-(1-phenylethylamino)-7H-pyrrolo[2,3-d]pyrimidin-6-yl)benzyl)piperidin-4-ylamino)hexanamide]: the pIC50 in assay [3] is 5.00 to 6.00.

As to `C[C@@H](Nc1ncnc2[nH]c(-c3ccc(CN4CCC(NCCCCCCCC(=O)NO)CC4)cc3)cc12)c1ccccc1` [Compound 57, (R)—N-hydroxy-8-(1-(4-(4-(1-phenylethylamino)-7H-pyrrolo[2,3-d]pyrimidin-6-yl)benzyl)piperidin-4-ylamino)octanamide], the pIC50 in assay [2] was greater than 7.00; in assay [3] it was 6.00 to 7.00.

With `C[C@@H](Nc1ncnc2[nH]c(-c3ccc(OCCCNCCCCCC(=O)NO)cc3)cc12)c1ccccc1` [Compound 62], the negative logarithm of the IC50 (pIC50) in assay [3] was 5.00 to 6.00.

Turning to `C[C@@H](Nc1ncnc2[nH]c(-c3ccc(CN4CCN(CCC(=O)NO)CC4)cc3)cc12)c1ccccc1` [Compound 12, (R)—N-Hydroxy-3-(4-(4-(4-(1-phenylethylamino)-7H-pyrrolo[2,3-d]pyrimidin-6-yl)benzyl)piperazin-1-yl)propanamide], the pIC50 in assay [1] is 6.00 to 7.00; in assay [2], greater than 7.00; in assay [3] it was less than 5.00; in assay [4] it was greater than 7.00.

Turning to `C[C@@H](Nc1ncnc2[nH]c(-c3ccc(NC(=O)Nc4ccc(C(=O)NO)cc4)cc3)cc12)c1ccccc1` [Compound 46], in assay [3], the negative-log IC50 (pIC50) is 6.00 to 7.00.

In the case of `C[C@@H](Nc1ncnc2c1cc(-c1ccc(N)cc1)n2CCCCCCC(=O)NO)c1ccccc1` [Compound 65], the pIC50 in assay [3] is greater than 7.00.

On to `C[C@@H](Nc1ncnc2[nH]c(-c3ccc(CNCC(=O)NO)cc3)cc12)c1ccccc1` [Compound 1, (R)—N-Hydroxy-2-(4-(4-(1-phenylethylamino)-7H-pyrrolo[2,3-d]pyrimidin-6-yl)benzylamino)acetamide], for which the pIC50 in assay [2], in assay [3] and in assay [4] was 5.00 to 6.00 in each case.

Compound `C[C@@H](Nc1ncnc2[nH]c(-c3ccc(CN4CCC(NCCCCCCC(=O)NO)CC4)cc3)cc12)c1ccccc1` [Compound 56, (R)—N-hydroxy-7-(1-(4-(4-(1-phenylethylamino)-7H-pyrrolo[2,3-d]pyrimidin-6-yl)benzyl)piperidin-4-ylamino)heptanamide] showed a pIC50 in assay [3] of 5.00 to 6.00.

In the case of `C[C@@H](Nc1ncnc2[nH]c(-c3ccc(NCCCCCC(=O)NO)cc3)cc12)c1ccccc1` [Compound 66, (R)—N-hydroxy-6-(4-(4-(1-phenylethylamino)-7H-pyrrolo[2,3-d]pyrimidin-6-yl)phenylamino)hexanamide], the pIC50 in assay [1], in assay [2] and in assay [4] was greater than 7.00 throughout.

In the case of `C[C@@H](Nc1ncnc2c1cc(-c1ccc(C(=O)NCCNCCCCCCC(=O)NO)cc1)n2C)c1ccccc1` [Compound 58], the pIC50 was 5.00 to 6.00 in assay [1], 6.00 to 7.00 in assay [2] and 6.00 to 7.00 in assay [3].

Consider `C[C@@H](Nc1ncnc2[nH]c(-c3ccc(CN4CCN(CCCCCC(=O)NO)CC4)cc3)cc12)c1ccc(F)cc1` [Compound 35], for which the pIC50 in assay [1], in assay [2] and in assay [3] was 6.00 to 7.00 in each case.

With `C[C@@H](Nc1ncnc2[nH]c(-c3ccc(CN4CCN(CCCCCC(=O)NO)CC4)cc3)cc12)c1ccccc1` [Compound 15, (R)—N-Hydroxy-6-(4-(4-(4-(1-phenylethylamino)-7H-pyrrolo[2,3-d]pyrimidin-6-yl)benzyl)piperazin-1-yl)hexanamide], the pIC50 in assay [1], in assay [2] and in assay [3] was 6.00 to 7.00 throughout.

Take `C[C@@H](Nc1ncnc2[nH]c(-c3ccc(CN4CCN(CCOCCCCC(=O)NO)CC4)cc3)cc12)c1ccccc1` [Compound 50, (R)—N-hydroxy-5-(2-(4-(4-(4-(1-phenylethylamino)-7H-pyrrolo[2,3-d]pyrimidin-6-yl)benzyl)piperazin-1-yl)ethoxy)pentanamide]: the pIC50 in assay [3] was 5.00 to 6.00.

As to `C[C@@H](Nc1ncnc2[nH]c(-c3ccc(NC(=O)Nc4ccc(/C=C/C(=O)NO)cc4)cc3)cc12)c1ccccc1` [Compound 47], the pIC50 in assay [3] was 5.00 to 6.00.

For `C[C@@H](Nc1ncnc2[nH]c(-c3ccc(CNCc4ccc(/C=C/C(=O)NO)cc4)cc3)cc12)c1ccccc1` [Compound 45, (R,E)-N-hydroxy-3-(4-((4-(4-(1-phenylethylamino)-7H-pyrrolo[2,3-d]pyrimidin-6-yl)benzylamino)methyl)phenyl)acrylamide], the pIC50 in assay [1], in assay [2] and in assay [4] was less than 5.00 in each case.

In assay [3], `C[C@@H](Nc1ncnc2[nH]c(-c3ccc(CN4CCN(CCOCCCCCC(=O)NO)CC4)cc3)cc12)c1ccccc1` [Compound 51, (R)—N-hydroxy-6-(2-(4-(4-(4-(1-phenylethylamino)-7H-pyrrolo[2,3-d]pyrimidin-6-yl)benzyl)piperazin-1-yl)ethoxy)hexanamide] showed a negative-log IC50 (pIC50) greater than 7.00.
